# Measured values taken from article PMC8900464 (Journal of medicinal chemistry, 2022).
# Tests used:
# Assay type in all cases: cell-based
# total AKT (T-AKT) = assay: Immunoblotting of total AKT in BT474 cells; details: 24 h, western blot; for AKT (T-AKT) degradation: BT474 cells, 1, 5 and 10 μM
# BT474 cells = assay: Cell colony formation assay; details: 14 days
# [1] = tested on: P-AKT (S473), P-PRAS40 (T246), P-S6 (S240/244); assay: Immunoblotting of P-AKT and downstream signaling in BT474 cells; details: 24 h
# [2] = BT474 cells, 1, 5 and 10 μM, P-PRAS40 and P-S6, western blot
Structure (SMILES),AKT (T-AKT) degradation (total AKT (T-AKT)),inhibition of colony formation (BT474 cells),"downstream signaling inhibition [1, 2]","AKT degradation (total AKT (T-AKT); BT474 cells, 5 μM)","downstream signaling inhibition ([1]; BT474 cells, 5 μM, western blot)"
"NC1(C(=O)N[C@@H](CCN2CCN(C(=O)CCOCCOCCOCCOCCOCCOc3cccc4c3C(=O)N(C3CCC(=O)NC3=O)C4=O)CC2)c2ccc(Cl)cc2)CCN(c2ncnc3[nH]ccc23)CC1 (stereo partly drawn) [Compound 40, 4-Amino-N-((1S)-1-(4-chlorophenyl)-3-(4-(1-((2-(2,6-dioxopiperidin-3-yl)-1,3-dioxoisoindolin-4-yl)oxy)-3,6,9,12,15-pentaoxaoctadecan-18-oyl)piperazin-1-yl)propyl)-1-(7H-pyrrolo[2,3-d]pyrimidin-4-yl)piperidine-4-carboxamide]",did not improve,did not improve,–,–,–
"Cc1ncsc1-c1ccc(CNC(=O)[C@@H]2C[C@@H](O)CN2C(=O)[C@@H](NC(=O)CCCCCCCCCCCC(=O)N2CCN(CC[C@H](NC(=O)C3(N)CCN(c4ncnc5[nH]ccc45)CC3)c3ccc(Cl)cc3)CC2)C(C)(C)C)cc1 [Compound 21, 4-Amino-N-((S)-1-(4-chlorophenyl)-3-(4-(13-(((S)-1-((2S,4R)-4-hydroxy-2-((4-(4-methylthiazol-5-yl)benzyl)carbamoyl)pyrrolidin-1-yl)-3,3-dimethyl-1-oxobutan-2-yl)amino)-13-oxotridecanoyl)-piperazin-1-yl)propyl)-1-(7H-pyrrolo[2,3-d]pyrimidin-4-yl)-piperidine-4-carboxamide]",–,highly effective in inhibiting colony formation,slightly enhanced downstream signaling inhibition compared to 19,–,–
NC1(C(=O)N[C@@H](CCN2CCN(C(=O)CCOCCOCCOCCOCCOCCCc3cccc4c3C(=O)N(C3CCC(=O)NC3=O)C4=O)CC2)c2ccc(Cl)cc2)CCN(c2ncnc3[nH]ccc23)CC1 (stereo partly shown) [Compound 41],did not improve,did not improve,–,–,–
"Cc1ncsc1-c1ccc(CNC(=O)[C@@H]2C[C@@H](O)CN2C(=O)[C@@H](NC(=O)COCC(=O)N2CCN(CC[C@H](NC(=O)C3(N)CCN(c4ncnc5[nH]ccc45)CC3)c3ccc(Cl)cc3)CC2)C(C)(C)C)cc1 [Compound 3, 4-Amino-N-((S)-1-(4-chlorophenyl)-3-(4-(2-(2-(((S)-1-((2S,4R)-4-hydroxy-2-((4-(4-methylthiazol-5-yl)benzyl)carbamoyl)pyrrolidin-1-yl)-3,3-dimethyl-1-oxobutan-2-yl)amino)-2-oxoethoxy)acetyl)-piperazin-1-yl)propyl)-1-(7H-pyrrolo[2,3-d]pyrimidin-4-yl)-piperidine-4-carboxamide]",most significant T-AKT degradation,–,most effective inhibition of the downstream signaling,–,–
"Cc1ncsc1-c1ccc(CNC(=O)[C@@H]2C[C@@H](O)CN2C(=O)[C@@H](NC(=O)CCCCC(=O)N2CCN(CC[C@H](NC(=O)C3(N)CCN(c4ncnc5[nH]ccc45)CC3)c3ccc(Cl)cc3)CC2)C(C)(C)C)cc1 [Compound 14, 4-Amino-N-((S)-1-(4-chlorophenyl)-3-(4-(6-(((S)-1-((2S,4R)-4-hydroxy-2-((4-(4-methylthiazol-5-yl)benzyl)carbamoyl)pyrrolidin-1-yl)-3,3-dimethyl-1-oxobutan-2-yl)amino)-6-oxohexanoyl)-piperazin-1-yl)propyl)-1-(7H-pyrrolo[2,3-d]pyrimidin-4-yl)-piperidine-4-carboxamide]",–,–,–,improved AKT degradation,significant downstream signaling inhibition
